Assay results published in US20100267561A1, “HERBICIDAL PYRIDAZINONE DERIVATIVES” (priority 2007, published 2010).

Assays:
Assay type in all cases: in vivo
[1] = test system: green foxtail (Setaria viridis); assay: Test B pre-/postemergence plant response
Excerpt: (§1) Seeds of plant species selected from blackgrass (Alopecurus myosuroides), downy bromegrass (Bromus tectorum), green foxtail (Setaria viridis), Italian ryegrass (Lolium multiflorum), wheat (Triticum aestivum), wild oat (Avena fatua), catchweed bedstraw (Galium aparine), bermudagrass (Cynodon dactylon), surinam grass (Brachiaria decumbens), cocklebur (Xanthium strumarium), corn (Zea mays), large crabgrass (Digitaria sanguinalis), woolly cupgrass (Eriochloa villosa), giant foxtail (Setaria faberii), goosegrass (Eleusine indica), johnsongrass (Sorghum halepense), kochia (Kochia scoparia), lambsquarters (Chenopodium album), morningglory (Ipomoea coccinea), eastern black (E.B.) nightshade (Solanum ptycanthum), yellow nutsedge (Cyperus esculentus), pigweed (Amaranthus retroflexus), common ragweed (Ambrosia elation), Russian thistle (Salsola iberica), soybean (Glycine max), common (oilseed) sunflower (Helianthus annuus), and velvetleaf (Abutilon theophrasti) were planted and treated preemergence with test chemicals formulated in a non-phytotoxic solvent mixture which included a surfactant.
(§2) At the same time, plants selected from these crop and weed species and also winter barley (Hordeum vulgare), canarygrass (Phalaris minor), chickweed (Stellaria media) and windgrass (Apera spica-venti) were treated with postemergence applications of some of the test chemicals formulated in the same manner. Plants ranged in height from 2 to 18 cm (1- to 4-leaf stage) for postemergence treatments.
(§3) Plant species in the flooded paddy test consisted of rice (Oryza sativa), umbrella sedge (Cyperus difformis), ducksalad (Heteranthera limosa) and barnyardgrass (Echinochloa crus-galli) grown to the 2-leaf stage for testing. At time of treatment, test pots were flooded to 3 cm above the soil surface, treated by application of test compounds directly to the paddy water, and then maintained at that water depth for the duration of the test. Treated plants and controls were maintained in a greenhouse for 13 to 15 days, after which time all species were compared to controls and visually evaluated. Plant response ratings, summarized in Table B, are based on a scale of 0 to 100 where 0 is no effect and 100 is complete control. A dash (-) response means no test result.

corn (Zea mays) = assay: Test B pre-/postemergence plant response
Excerpt: as §1, §2, §3

[2] = test system: wheat (Triticum aestivum); assay: Test B pre-/postemergence plant response
Excerpt: as §1, §2, §3

[3] = test system: morningglory (Ipomoea coccinea); assay: Test B pre-/postemergence plant response
Excerpt: as §1, §2, §3

[4] = test system: large crabgrass (Digitaria sanguinalis); assay: Test B pre-/postemergence plant response
Excerpt: as §1, §2, §3

[5] = test system: common (oilseed) sunflower (Helianthus annuus); assay: Test B pre-/postemergence plant response; settings: Preemergence
Excerpt: as §1, §2, §3

wild oat (Avena fatua) = assay: Test B pre-/postemergence plant response
Excerpt: as §1, §2, §3

[6] = test system: downy bromegrass (Bromus tectorum); assay: Test B pre-/postemergence plant response
Excerpt: as §1, §2, §3

[7] = test system: surinam grass (Brachiaria decumbens); assay: Test B pre-/postemergence plant response
Excerpt: as §1, §2, §3

[8] = test system: velvetleaf (Abutilon theophrasti); assay: Test B pre-/postemergence plant response
Excerpt: as §1, §2, §3

[9] = test system: umbrella sedge (Cyperus difformis); assay: Test B flooded paddy test plant response
Procedure, shortened: (§4)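 2-leaf plants; pots flooded 3 cm above soil; compound added to paddy water; depth maintained. Greenhouse 13–15 d. Visual rating vs controls, 0 (no effect) to 100 (complete control); dash = no result.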

[10] = test system: ducksalad (Heteranthera limosa); assay: Test B flooded paddy test plant response
Procedure, shortened: as §4

rice (Oryza sativa) = assay: Test B flooded paddy test plant response
Procedure, shortened: as §4

[11] = test system: barnyardgrass (Echinochloa crus-galli); assay: Test B flooded paddy test plant response
Procedure, shortened: as §4

[12] = Postemergence, 31 g ai/ha, scale 0 to 100, 0 no effect, 100 complete control
[13] = Postemergence, 62 g ai/ha, scale 0 to 100
[14] = Postemergence, 125 g ai/ha, scale 0 to 100
[15] = Postemergence, 250 g ai/ha, scale 0 to 100
[16] = Preemergence, 31 g ai/ha, 0 to 100 scale, 0 no effect, 100 complete control
[17] = Preemergence, 62 g ai/ha, scale 0 to 100
[18] = Preemergence, 125 g ai/ha, scale 0 to 100
[19] = Preemergence, 250 g ai/ha, scale 0 to 100
[20] = Flood (flooded paddy test), 62 g ai/ha, scale 0 to 100, 0 no effect, 100 complete control
[21] = Flood (flooded paddy test), 125 g ai/ha, scale 0 to 100, 0 no effect, 100 complete control
[22] = Flood (flooded paddy test), 250 g ai/ha, scale 0 to 100, 0 no effect, 100 complete control
[23] = Flood, 31 g ai/ha, scale 0 to 100

Cc1cc(-c2ccc(Br)cc2)nn1-c1c(OC(=O)OC(C)C)cnn(C)c1=O [Compound 6]
Plant response rating, Foxtail, Green [1, 12]: 100 | Plant response rating, Foxtail, Green [1, 13]: 100 | Plant response rating, Foxtail, Green [1, 14]: 100 | Plant response rating, Foxtail, Green [1, 15]: 100 | Plant response rating, Foxtail, Green [1, 16]: 100 | Plant response rating, Foxtail, Green [1, 17]: 100 | Plant response rating, Foxtail, Green [1, 18]: 100 | Plant response rating, Foxtail, Green [1, 19]: 100 | Plant response rating, Corn (corn (Zea mays); [12]): 95 | Plant response rating, Corn (corn (Zea mays); [13]): 95 | Plant response rating, Corn (corn (Zea mays); [14]): 100 | Plant response rating, Corn (corn (Zea mays); [15]): 100 | Plant response rating, Corn (corn (Zea mays); [16]): 95 | Plant response rating, Corn (corn (Zea mays); [17]): 98 | Plant response rating, Corn (corn (Zea mays); [18]): 98 | Plant response rating, Corn (corn (Zea mays); [19]): 100 | Plant response rating, Wheat [2, 12]: 90 | Plant response rating, Wheat [2, 13]: 100 | Plant response rating, Wheat [2, 14]: 100 | Plant response rating, Wheat [2, 15]: 100 | Plant response rating, Wheat [2, 16]: 35 | Plant response rating, Wheat [2, 17]: 80 | Plant response rating, Wheat [2, 18]: 90 | Plant response rating, Wheat [2, 19]: 90 | Plant response rating, Morningglory [3, 12]: 0 | Plant response rating, Morningglory [3, 13]: 0 | Plant response rating, Morningglory [3, 14]: 0 | Plant response rating, Morningglory [3, 15]: 50 | Plant response rating, Morningglory [3, 16]: 0 | Plant response rating, Morningglory [3, 17]: 0 | Plant response rating, Morningglory [3, 18]: 0 | Plant response rating, Morningglory [3, 19]: 0 | Plant response rating, Crabgrass, Large [4, 12]: 100 | Plant response rating, Crabgrass, Large [4, 13]: 100 | Plant response rating, Crabgrass, Large [4, 14]: 100 | Plant response rating, Crabgrass, Large [4, 15]: 100 | Plant response rating, Crabgrass, Large [4, 16]: 98 | Plant response rating, Crabgrass, Large [4, 17]: 100 | Plant response rating, Crabgrass, Large [4, 18]: 100 | Plant response rating, Crabgrass, Large [4, 19]: 100 | Plant response rating, Sunflower ([5]; 31 g ai/ha, 0 to 100 scale, 0 no effect, 100 complete control): 0 | Plant response rating, Sunflower ([5]; 62 g ai/ha, scale 0 to 100): 0 | Plant response rating, Sunflower ([5]; 125 g ai/ha, scale 0 to 100): 0 | Plant response rating, Sunflower ([5]; 250 g ai/ha, scale 0 to 100): 0 | Plant response rating, Oat, Wild (wild oat (Avena fatua); [12]): 100 | Plant response rating, Oat, Wild (wild oat (Avena fatua); [13]): 100 | Plant response rating, Oat, Wild (wild oat (Avena fatua); [14]): 100 | Plant response rating, Oat, Wild (wild oat (Avena fatua); [15]): 100 | Plant response rating, Oat, Wild (wild oat (Avena fatua); [16]): 50 | Plant response rating, Oat, Wild (wild oat (Avena fatua); [17]): 50 | Plant response rating, Oat, Wild (wild oat (Avena fatua); [18]): 85 | Plant response rating, Oat, Wild (wild oat (Avena fatua); [19]): 85 | Plant response rating, Bromegrass, Downy [6, 12]: 5 | Plant response rating, Bromegrass, Downy [6, 13]: 5 | Plant response rating, Bromegrass, Downy [6, 14]: 5 | Plant response rating, Bromegrass, Downy [6, 15]: 10 | Plant response rating, Bromegrass, Downy [6, 16]: 50 | Plant response rating, Bromegrass, Downy [6, 17]: 65 | Plant response rating, Bromegrass, Downy [6, 18]: 65 | Plant response rating, Bromegrass, Downy ([6]; Preemergence, 250 g ai/ha, scale 0 to 100 (0 no effect, 100 complete control)): 95 | Plant response rating, Surinam Grass [7, 12]: 100 | Plant response rating, Surinam Grass [7, 13]: 100 | Plant response rating, Surinam Grass [7, 14]: 100 | Plant response rating, Surinam Grass [7, 15]: 100 | Plant response rating, Surinam Grass [7, 16]: 98 | Plant response rating, Surinam Grass [7, 17]: 98 | Plant response rating, Surinam Grass [7, 18]: 100 | Plant response rating, Surinam Grass [7, 19]: 100 | Plant response rating, Velvetleaf [8, 12]: 0 | Plant response rating, Velvetleaf [8, 13]: 0 | Plant response rating, Velvetleaf [8, 14]: 0 | Plant response rating, Velvetleaf [8, 15]: 10 | Plant response rating, Velvetleaf [8, 16]: 0 | Plant response rating, Velvetleaf [8, 17]: 0 | Plant response rating, Velvetleaf [8, 18]: 0 | Plant response rating, Velvetleaf [8, 19]: 40 | Plant response rating, Sedge, Umbrella [9, 20]: 70 | Plant response rating, Sedge, Umbrella [9, 21]: 85 | Plant response rating, Sedge, Umbrella [9, 22]: 95 | Plant response rating, Sedge, Umbrella [9, 23]: 30 | Plant response rating, Ducksalad [10, 20]: 50 | Plant response rating, Ducksalad [10, 21]: 60 | Plant response rating, Ducksalad [10, 22]: 70 | Plant response rating, Ducksalad [10, 23]: 40 | Plant response rating, Rice (rice (Oryza sativa); [20]): 30 | Plant response rating, Rice (rice (Oryza sativa); [21]): 80 | Plant response rating, Rice (rice (Oryza sativa); [22]): 90 | Plant response rating, Rice (rice (Oryza sativa); [23]): 20 | Plant response rating, Barnyardgrass [11, 20]: 40 | Plant response rating, Barnyardgrass [11, 21]: 80 | Plant response rating, Barnyardgrass [11, 22]: 90 | Plant response rating, Barnyardgrass [11, 23]: 0
